In the supplement of paper PMC10307832:

Experiments:
Assay in all cases: relative viability (nuclei count vs DMSO), 5 days (fraction); higher = more cells survive
Venetoclax + Olaparib = compound: CC1(C)CCC(CN2CCN(c3ccc(C(=O)NS(=O)(=O)c4ccc(NCC5CCOCC5)c([N+](=O)[O-])c4)c(Oc4cnc5[nH]ccc5c4)c3)CC2)=C(c2ccc(Cl)cc2)C1 [Venetoclax] + O=C(c1cc(Cc2n[nH]c(=O)c3ccccc23)ccc1F)N1CCN(C(=O)C2CC2)CC1 [Olaparib] (partner 8 µM)
Method in brief: (§1)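 For relative viability, nuclei counts in treated wells were divided by those in vehicle wells. Lung cancer cell lines had been pin-tool dosed in 1536-well plates the day after seeding and cultured for 5 days, then fixed and stained in one step (final 0.05% Triton X-100, 1% formaldehyde, 1 ug/ml Hoechst) and imaged at 4×. Doses were one drug alone or a fixed anchor-drug dose plus five library-drug doses (not always all listed) in √10 steps, and values are duplicate-plate medians.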

Venetoclax + Luminespib = compound: CC1(C)CCC(CN2CCN(c3ccc(C(=O)NS(=O)(=O)c4ccc(NCC5CCOCC5)c([N+](=O)[O-])c4)c(Oc4cnc5[nH]ccc5c4)c3)CC2)=C(c2ccc(Cl)cc2)C1 [Venetoclax] + CCNC(=O)c1noc(-c2cc(C(C)C)c(O)cc2O)c1-c1ccc(CN2CCOCC2)cc1 [Luminespib] (partner 0.01 µM)
Method in brief: as §1

Selumetinib + Pictilisib = compound: Cn1cnc2c(F)c(Nc3ccc(Br)cc3Cl)c(C(=O)NOCCO)cc21 [Selumetinib] + CS(=O)(=O)N1CCN(Cc2cc3nc(-c4cccc5[nH]ncc45)nc(N4CCOCC4)c3s2)CC1 [Pictilisib] (partner 1 µM)
Method in brief: as §1

Selumetinib + AZD7762 = compound: Cn1cnc2c(F)c(Nc3ccc(Br)cc3Cl)c(C(=O)NOCCO)cc21 [Selumetinib] + NC(=O)Nc1cc(-c2cccc(F)c2)sc1C(=O)N[C@H]1CCCNC1 [AZD7762] (partner 0.2 µM)
Method in brief: as §1

Row | Cell Line | relative viability (Venetoclax + Olaparib; first compound 0.01 µM) | relative viability (Venetoclax + Olaparib; first compound 0.03162 µM) | relative viability (Venetoclax + Olaparib; first compound 0.1 µM) | relative viability (Venetoclax + Olaparib; first compound 0.3162 µM) | relative viability (Venetoclax + Olaparib; first compound 1 µM) | relative viability (Venetoclax + Luminespib; first compound 0.01 µM) | relative viability (Venetoclax + Luminespib; first compound 0.03162 µM) | relative viability (Venetoclax + Luminespib; first compound 0.1 µM) | relative viability (Venetoclax + Luminespib; first compound 0.3162 µM) | relative viability (Venetoclax + Luminespib; first compound 1 µM) | relative viability (Selumetinib + Pictilisib; first compound 0.02 µM) | relative viability (Selumetinib + Pictilisib; first compound 0.06325 µM) | relative viability (Selumetinib + Pictilisib; first compound 0.2 µM) | relative viability (Selumetinib + Pictilisib; first compound 0.6325 µM) | relative viability (Selumetinib + AZD7762; first compound 0.02 µM) | relative viability (Selumetinib + AZD7762; first compound 0.06325 µM) | relative viability (Selumetinib + AZD7762; first compound 0.2 µM) | relative viability (Selumetinib + AZD7762; first compound 0.6325 µM)
1 | NCI-H2009 | 0.662 | 0.729 | 0.681 | 0.655 | 0.586 | 0.987 | 1.08 | 0.937 | 1 | 0.92 | 0.614 | 0.355 | 0.266 | 0.221 |  |  |  | 
2 | CAL-12T | 0.675 | 0.715 | 0.732 | 0.709 | 0.634 | 0.353 | 0.254 | 0.375 | 0.24 | 0.412 | 0.415 | 0.394 | 0.408 | 0.395 | 0.64 | 0.574 | 0.566 | 0.568
3 | NCI-H1623 |  |  |  |  |  | 0.545 | 0.502 | 0.566 | 0.6 | 0.464 |  |  |  |  |  |  |  | 
4 | HCC-78 | 0.718 | 0.78 | 0.879 | 0.871 | 0.686 |  |  |  |  |  | 0.0694 | 0.181 | 0.134 | 0.216 | 0.576 | 0.581 | 0.526 | 0.477
5 | EKVX | 0.93 | 0.908 | 0.817 | 0.855 | 0.819 | 0.87 | 0.89 | 0.923 | 0.833 | 0.884 | 0.395 | 0.391 | 0.317 | 0.243 | 0.713 | 0.594 | 0.613 | 0.502
6 | NCI-H1703 | 0.35 | 0.328 | 0.333 | 0.44 | 0.476 |  |  |  |  |  | 0.231 | 0.193 | 0.229 | 0.283 | 0.157 | 0.119 |  | 0.134
7 | NCI-H1944 | 0.627 | 0.394 | 0.392 | 0.418 | 0.406 | 0.992 | 0.787 | 0.775 | 0.879 | 0.696 | 0.338 | 0.337 | 0.275 | 0.319 | 0.448 | 0.438 | 0.401 | 0.427
8 | NCI-H1755 | 0.879 | 0.873 | 0.917 | 0.832 | 0.831 | 0.534 | 0.452 | 0.556 | 0.348 | 0.55 | 0.446 | 0.426 | 0.342 | 0.365 | 0.522 | 0.352 | 0.393 | 0.451
9 | Calu-6 | 0.609 | 0.619 | 0.602 | 0.554 | 0.546 |  |  |  |  |  | 0.931 | 0.644 | 0.467 | 0.335 |  |  |  | 
10 | EBC-1 | 0.636 | 0.77 | 0.662 | 0.647 | 0.662 |  |  |  |  |  | 0.259 | 0.172 | 0.182 | 0.173 |  |  |  | 
11 | EPLC-272H | 0.63 | 0.697 | 0.803 | 0.786 | 0.83 | 0.64 | 0.368 | 0.212 | 0.171 | 0.367 | 0.299 | 0.253 | 0.245 | 0.208 | 0.24 | 0.19 | 0.281 | 0.476
12 | A-427 | 0.709 | 0.709 | 0.821 | 0.657 | 0.778 | 0.903 | 0.847 | 0.889 | 1.07 | 0.891 | 0.752 | 0.583 | 0.493 | 0.421 | 0.7 | 0.613 | 0.628 | 0.618
13 | NCI-H3122 | 0.644 | 0.671 | 0.637 | 0.667 | 0.603 | 0.0697 | 0.0939 | 0.105 | 0.0864 | 0.101 | 0.396 | 0.298 | 0.206 | 0.211 | 0.886 | 0.808 | 0.785 | 0.552
14 | NCI-H1563 |  |  |  |  |  | 0.548 | 0.546 | 0.499 | 0.447 | 0.577 | 0.616 | 0.587 | 0.753 | 0.638 |  |  |  | 
15 | NCI-H358 | 0.567 | 0.651 | 0.575 | 0.773 | 0.579 | 0.402 | 0.313 | 0.245 | 0.579 | 0.321 | 0.316 | 0.302 | 0.314 | 0.277 | 0.374 | 0.349 | 0.385 | 0.367
16 | SK-LU-1 | 0.447 | 0.665 | 0.477 | 0.574 | 0.623 | 0.188 | 0.21 | 0.197 | 0.198 | 0.197 | 0.618 | 0.493 | 0.459 | 0.258 |  |  |  | 
17 | NCI-H2347 | 0.578 | 0.558 | 0.514 | 0.633 | 0.537 | 0.307 | 0.702 | 0.405 | 0.283 | 0.948 | 0.641 | 0.314 | 0.239 | 0.258 | 0.678 | 0.568 | 0.454 | 0.343
18 | IA-LM | 0.795 | 0.819 | 0.7 | 0.795 | 0.67 |  |  |  |  |  | 0.144 | 0.143 | 0.119 | 0.0815 |  |  |  | 
19 | HCC-15 | 0.607 | 0.754 | 0.75 | 0.68 | 0.668 | 0.479 | 0.318 | 0.308 | 0.316 | 0.181 | 0.509 | 0.31 | 0.25 | 0.207 | 0.996 | 0.808 | 1.01 | 0.631
20 | PC-3 [JPC-3] | 1.15 | 1.19 | 1.21 | 1.15 | 1.04 | 0.673 | 0.661 | 0.667 | 0.688 | 0.668 | 0.711 | 0.718 | 0.456 | 0.503 | 0.656 | 0.676 | 0.57 | 0.678
21 | NCI-H1915 | 0.275 | 0.288 | 0.264 | 0.272 | 0.231 | 0.745 | 0.808 | 0.708 | 0.699 | 0.695 | 0.889 | 0.716 | 0.454 | 0.448 | 0.81 | 0.663 | 0.646 | 0.453
